Blood sugar and Glucose in urine data for one molecule are collected here from patent publication US10993955B2, “Medicament for use in treating diabetes” (Shandong Zhonghai Pharmaceutical CO. LTD, priority 2016, dated 2021).

This experiment deals with diabetic patients. In words: Therapeutic effect in diabetic patients (blood glucose, urine glucose), 3 months treatment. Type of experiment: in vivo, human. The text has this:
The medicament hereof is used to compare the therapeutic effects in diabetic patients, and the details are as follows:
The applicant has divided 100 diabetic patients into treatment group. Among these patients, 6 are aged 16 to 30 years old, 14 are 31 to 45 years old, 28 are 46 to 60 years old, and 52 are 61 to 75 years old.
During the treatment, the patients in the treatment group discontinue the administration of any other medicaments, and only take the medicament described in Embodiment 3 hereof, once in the morning and evening, 2 g each time; the patients in the control group take D-860 Rastinon according to the package insert, and the patients in treatment group and the control group of the invention were treated and observed for 3 months, and the results are as follows: […]

The mark [1] stands for this setting: diabetic patients aged 16-30, after 3 months treatment.
The mark [2] stands for this setting: diabetic patients aged 31-45, after 3 months treatment.
Setting [3] is: diabetic patients aged 46-60, after 3 months treatment.
Where [4] appears, read: diabetic patients aged 61-75, after 3 months treatment.

For the molecule `CCCCNC(=O)NS(=O)(=O)c1ccc(C)cc1` [D-860 Rastinon], the Blood sugar under setting [1] is given as 6.2 mmol/L, the Blood sugar under setting [2] was in the range of 6.5 to 6.7 mmol/L, the Blood sugar under setting [3] fell in the range of 7.3 to 7.6 mmol/L and the Blood sugar under setting [4] was in the range of 9.0 to 9.2 mmol/L. The Glucose in urine by setting is: under setting [1], 1.0 mmol/L; under setting [2], 28.6 to 32.2 mmol/L; under setting [3], 31 to 35 mmol/L; under setting [4], 35 to 58 mmol/L.
